Source: patent US8017612B2, “Piperazine compound and use thereof as a HCV polymerase inhibitor” (priority 2006, dated 2011)

Experiments:
[1] = biological target: T1, HCV polymerase (NS5B) type 1b (Hepatitis C virus genotype 1b, UniProt P26663); assay: Assay of enzyme (HCV polymerase) inhibitory activity, type 1b enzyme; format: biochemical, HCV BK strain (type 1b); details: HCV polymerase inhibitory activity IC50, 1b, type 1b enzyme
T1 construct: a region encoding NS5B (J Virol 1991 March, 65(3), 1105-13, 544 amino acids after deletion of 47 amino acids on the C-terminal); 6xHis (C); made in house; host or cells: Escherichia coli
Method in brief: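 NS5B from HCV BK strain (type 1b), C-terminal 47 aa deleted, C-terminal His6-tagged, E. coli-expressed, 0.5 μg/ml, with ~450 nt substrate RNA carrying the 3′ UTR (polyU, 3′X) at 5 μg/ml. Incubation 60 min at 25 °C with 50 μM ATP/GTP/CTP, 2 μM UTP plus [3H]UTP, pH 7.5 Tris.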

[2] = biological target: T2, HCV polymerase (NS5B) type 1a (Hepatitis C virus genotype 1a, UniProt P26664); assay: Assay of enzyme (HCV polymerase) inhibitory activity, type 1a enzyme; format: biochemical, HCV type 1a (cloned from the blood of patients); details: HCV polymerase inhibitory activity IC50, 1a, type 1a enzyme
T2 construct: made in house; host or cells: Escherichia coli (by the 'similar method' of the 1b enzyme)
Method in brief: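 Patient-derived type 1a NS5B (C-terminal 47-aa deletion, His-tagged, E. coli-expressed) at 1.5 μg/ml was reacted with 5 μg/ml 3′UTR-containing substrate RNA, 50 μM ATP/GTP/CTP, 2 μM UTP plus [3H]UTP, pH 7.5, 25° C for 60 min. TCA-precipitated RNA radioactivity was counted; IC50 from ± compound.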

Structure (SMILES)	IC50 [1] [nM]	IC50 [2] [nM]
O=C(NCc1ccc(OC(F)(F)F)cc1)[C@H]1CN(c2nn3cnnc3s2)CCN1S(=O)(=O)c1ccc(C(F)(F)F)cc1 [Example 953, (R)-4-[1,2,4]triazolo[3,4-b][1,3,4]thiadiazol-6-yl-1-(4-trifluoromethyl-benzenesulfonyl)-piperazine-2-carboxylic acid 4-trifluoromethoxy-benzylamide]	< 100	< 100
O=C(NCc1ccc(OC(F)F)cc1)[C@H]1CN(c2nn3cnnc3s2)CCN1S(=O)(=O)c1ccc(OC(F)(F)F)cc1 [Example 954, (R)-4-[1,2,4]triazolo[3,4-b][1,3,4]thiadiazol-6-yl-1-(4-trifluoromethoxy-benzenesulfonyl)-piperazine-2-carboxylic acid 4-difluoromethoxy-benzylamide]	< 100	< 100
O=C(NCc1ccc(OC(F)F)cc1)[C@H]1CN(c2nc3nc(Cl)ncc3s2)CCN1S(=O)(=O)c1ccc(OC(F)F)cc1 [Example 955, (R)-4-(5-chloro-thiazolo[4,5-d]pyrimidin-2-yl)-1-(4-difluoromethoxy-benzenesulfonyl)-piperazine-2-carboxylic acid 4-difluoromethoxy-benzylamide]	< 100	< 100
O=C(NCc1ccc(OC(F)F)cc1)[C@H]1CN(c2nc3ncncc3s2)CCN1S(=O)(=O)c1ccc(OC(F)F)cc1 [Example 956, (R)-1-(4-difluoromethoxy-benzenesulfonyl)-4-thiazolo[4,5-d]pyrimidin-2-yl-piperazine-2-carboxylic acid 4-difluoromethoxy-benzylamide]	< 100	< 100
Cn1ncc2sc(N3CCN(S(=O)(=O)c4ccc(OC(F)(F)F)cc4)[C@@H](C(=O)NCc4ccc(OC(F)(F)F)cc4)C3)nc2c1=O [Example 957, (R)-4-(5-methyl-4-oxo-4,5-dihydro-thiazolo[4,5-d]pyridazin-2-yl)-1-(4-trifluoromethoxy-benzenesulfonyl)-piperazine-2-carboxylic acid 4-trifluoromethoxy-benzylamide]	< 100	< 100
CCN(C)c1ccc(CNC(=O)[C@H]2CN(c3nc4nc(Cl)ncc4s3)CCN2S(=O)(=O)c2ccc(OC(F)(F)F)cc2)cc1 [Example 958, (R)-4-(5-chloro-thiazolo[4,5-d]pyrimidin-2-yl)-1-(4-trifluoromethoxy-benzenesulfonyl)-piperazine-2-carboxylic acid 4-(ethyl-methyl-amino)-benzylamide]	< 100	< 100
O=C(NCc1ccc(OC(F)(F)F)cc1)[C@H]1CN(c2nc3nc(Cl)ncc3s2)CCN1S(=O)(=O)c1ccc(OC(F)(F)C(F)F)cc1 [Example 959, (R)-4-(5-chloro-thiazolo[4,5-d]pyrimidin-2-yl)-1-[4-(1,1,2,2-tetrafluoro-ethoxy)-benzenesulfonyl]-piperazine-2-carboxylic acid 4-trifluoromethoxy-benzylamide]	< 100	< 100
O=C(NCc1ccc(OC(F)(F)F)cc1)[C@H]1CN(c2nc3ncncc3s2)CCN1S(=O)(=O)c1ccc(OC(F)(F)C(F)F)cc1 [Example 960, (R)-1-[4-(1,1,2,2-tetrafluoro-ethoxy)-benzenesulfonyl]-4-thiazolo[4,5-d]pyrimidin-2-yl-piperazine-2-carboxylic acid 4-trifluoromethoxy-benzylamide]	< 100	< 100
O=C(NCc1ccc(OC(F)(F)F)cc1)[C@H]1CN(c2nc3nc(C(F)(F)F)ncc3s2)CCN1S(=O)(=O)c1ccc(OC(F)(F)F)cc1 [Example 961, (R)-1-(4-trifluoromethoxy-benzenesulfonyl)-4-(5-trifluoromethyl-thiazolo[4,5-d]pyrimidin-2-yl)-piperazine-2-carboxylic acid 4-trifluoromethoxy-benzylamide]	< 100	< 100
Nc1nc(Cl)nc2nc(N3CCN(S(=O)(=O)c4ccc(OC(F)(F)F)cc4)[C@@H](C(=O)NCc4ccc(OC(F)(F)F)cc4)C3)sc12 [Example 962, (R)-4-(7-amino-5-chloro-thiazolo[4,5-d]pyrimidin-2-yl)-1-(4-trifluoromethoxy-benzenesulfonyl)-piperazine-2-carboxylic acid 4-trifluoromethoxy-benzylamide]	< 100	< 100
O=C(NCc1ccc(OC(F)(F)F)cc1)[C@H]1CN(c2nc3nc(Cl)[nH]c(=O)c3s2)CCN1S(=O)(=O)c1ccc(OC(F)(F)F)cc1 [Example 963, (R)-4-(5-chloro-7-oxo-6,7-dihydro-thiazolo[4,5-d]pyrimidin-2-yl)-1-(4-trifluoromethoxy-benzenesulfonyl)-piperazine-2-carboxylic acid 4-trifluoromethoxy-benzylamide]	< 100	< 100
N#Cc1ncc2sc(N3CCN(S(=O)(=O)c4ccc(OC(F)(F)F)cc4)[C@@H](C(=O)NCc4ccc(OC(F)(F)F)cc4)C3)nc2n1 [Example 964, (R)-4-(5-cyano-thiazolo[4,5-d]pyrimidin-2-yl)-1-(4-trifluoromethoxy-benzenesulfonyl)-piperazine-2-carboxylic acid 4-trifluoromethoxy-benzylamide]	< 100	< 100
COc1ccc(CNC(=O)[C@H]2CN(c3nc4nc(Cl)ncc4s3)CCN2S(=O)(=O)c2ccc(OC(F)(F)F)cc2)cc1 [Example 965, (R)-4-(5-chloro-thiazolo[4,5-d]pyrimidin-2-yl)-1-(4-trifluoromethoxy-benzenesulfonyl)-piperazine-2-carboxylic acid 4-methoxy-benzylamide]	< 100	< 100
O=C(NCc1ccc(OCF)cc1)[C@H]1CN(c2nc3nc(Cl)ncc3s2)CCN1S(=O)(=O)c1ccc(OC(F)(F)F)cc1 [Example 966, (R)-4-(5-chloro-thiazolo[4,5-d]pyrimidin-2-yl)-1-(4-trifluoromethoxy-benzenesulfonyl)-piperazine-2-carboxylic acid 4-fluoromethoxy-benzylamide]	< 100	< 100
O=C(NCc1ccc(OCF)cc1)[C@H]1CN(c2nc3ncncc3s2)CCN1S(=O)(=O)c1ccc(OC(F)(F)F)cc1 [Example 967, (R)-4-thiazolo[4,5-d]pyrimidin-2-yl-1-(4-trifluoromethoxy-benzenesulfonyl)-piperazine-2-carboxylic acid 4-fluoromethoxy-benzylamide]	< 100	< 100
O=C(NCc1ccc(OC(F)F)cc1)[C@H]1CN(c2nc3nc(Cl)ncc3s2)CCN1S(=O)(=O)c1ccc(C(F)(F)F)cc1 [Example 968, (R)-4-(5-chloro-thiazolo[4,5-d]pyrimidin-2-yl)-1-(4-trifluoromethyl-benzenesulfonyl)-piperazine-2-carboxylic acid 4-difluoromethoxy-benzylamide]	< 100	< 100
O=C(NCc1ccc(OC(F)F)cc1)[C@H]1CN(c2nc3ncncc3s2)CCN1S(=O)(=O)c1ccc(C(F)(F)F)cc1 [Example 969, (R)-4-thiazolo[4,5-d]pyrimidin-2-yl-1-(4-trifluoromethyl-benzenesulfonyl)-piperazine-2-carboxylic acid 4-difluoromethoxy-benzylamide]	< 100	< 100
Cc1ncc2sc(N3CCN(S(=O)(=O)c4ccc(C(F)(F)F)cc4)[C@@H](C(=O)NCc4ccc(OC(F)F)cc4)C3)nc2n1 [Example 970, (R)-4-(5-methyl-thiazolo[4,5-d]pyrimidin-2-yl)-1-(4-trifluoromethyl-benzenesulfonyl)-piperazine-2-carboxylic acid 4-difluoromethoxy-benzylamide]	< 100	< 100
O=C(NCc1ccc(C2CC2)cc1)[C@H]1CN(c2nc3nc(Cl)ncc3s2)CCN1S(=O)(=O)c1ccc(OC(F)(F)F)cc1 [Example 971, (R)-4-(5-chloro-thiazolo[4,5-d]pyrimidin-2-yl)-1-(4-trifluoromethoxy-benzenesulfonyl)-piperazine-2-carboxylic acid 4-cyclopropyl-benzylamide]	< 100	< 100
O=C(NCc1ccc(OC(F)(F)F)cc1)[C@H]1CN(c2nc3nc(F)ncc3s2)CCN1S(=O)(=O)c1ccc(OC(F)(F)F)cc1 [Example 972, (R)-4-(5-fluoro-thiazolo[4,5-d]pyrimidin-2-yl)-1-(4-trifluoromethoxy-benzenesulfonyl)-piperazine-2-carboxylic acid 4-trifluoromethoxy-benzylamide]	< 100	< 100
CC(C)Nc1ncc2sc(N3CCN(S(=O)(=O)c4ccc(OC(F)(F)F)cc4)[C@@H](C(=O)NCc4ccc(OC(F)(F)F)cc4)C3)nc2n1 [Example 973, (R)-4-(5-isopropylamino-thiazolo[4,5-d]pyrimidin-2-yl)-1-(4-trifluoromethoxy-benzenesulfonyl)-piperazine-2-carboxylic acid 4-trifluoromethoxy-benzylamide]	< 100	< 100
CCN(CC)c1nc(Br)nc2nc(N3CCN(S(=O)(=O)c4ccc(C(F)(F)F)cc4)[C@@H](C(=O)NCc4ccc(OC(F)(F)F)cc4)C3)sc12 [Example 974, (R)-4-(5-bromo-7-diethylamino-thiazolo[4,5-d]pyrimidin-2-yl)-1-(4-trifluoromethyl-benzenesulfonyl)-piperazine-2-carboxylic acid 4-trifluoromethoxy-benzylamide]	> 1000	> 1000
